Measurements reported in ChEMBL document CHEMBL4393697, “Lipophilic efficient phenylthiazoles with potent undecaprenyl pyrophosphatase inhibitory activity” (Eur J Med Chem, 2019).
Converted amounts (≈) assume the structure as drawn.

Key:
[1] = tested on: Staphylococcus aureus; assay: Antibacterial activity against methicillin resistant Staphylococcus aureus USA400 assessed as reduction in bacterial cell growth incubated for 18 to 20 hrs by broth microdilution method; assay type: functional
[2] = Solubility of compound in PBS after 2 hrs by turbidity based absorbance analysis; assay type: physicochemical
[3] = tested on: J774; assay: Cytotoxicity against mouse J774 assessed as reduction in cell viability at 16 ug/ml incubated for 24 hrs by MTS assay; assay type: cell-based; details: j774, 24 h
[4] = tested on: Staphylococcus aureus; assay: Bactericidal activity against vancomycin resistant Staphylococcus aureus VRS11a assessed as reduction in bacterial cell growth incubated for 18 to 20 hrs followed by re-plating on tryptic soy agar plates at 37 degC for 18 hrs by broth microdilution assay; assay type: functional
[5] = tested on: Streptococcus pneumoniae; assay: Bactericidal activity against Cephalosporin resistant Streptococcus pneumoniae ATCC 51916 assessed as reduction in bacterial cell growth incubated for 18 to 20 hrs followed by re-plating on tryptic soy agar plates at 37 degC for 18 hrs by broth microdilution assay; assay type: functional
[6] = tested on: Streptococcus pneumoniae; assay: Bactericidal activity against Methicillin resistant Streptococcus pneumoniae ATCC 700677 assessed as reduction in bacterial cell growth incubated for 18 to 20 hrs followed by re-plating on tryptic soy agar plates at 37 degC for 18 hrs by broth microdilution assay; assay type: functional
[7] = tested on: Listeria monocytogenes; assay: Bactericidal activity against Listeria monocytogenes ATCC 19111 assessed as reduction in bacterial cell growth incubated for 18 to 20 hrs followed by re-plating on tryptic soy agar plates at 37 degC for 18 hrs by broth microdilution assay; assay type: functional
[8] = tested on: Staphylococcus aureus; assay: Antibacterial activity against vancomycin resistant Staphylococcus aureus VRS12 assessed as reduction in bacterial cell growth incubated for 18 to 20 hrs by broth microdilution method; assay type: functional
[9] = tested on: Enterococcus faecium; assay: Bactericidal activity against vancomycin resistant Enterococcus faecium ATCC 700221 assessed as reduction in bacterial cell growth incubated for 18 to 20 hrs followed by re-plating on tryptic soy agar plates at 37 degC for 18 hrs by broth microdilution assay; assay type: functional
[10] = tested on: Staphylococcus aureus; assay: Antibacterial activity against Staphylococcus aureus ATCC 6538 assessed as reduction in bacterial cell growth incubated for 18 to 20 hrs by broth microdilution method; assay type: functional
[11] = tested on: Enterococcus faecalis; assay: Bactericidal activity against vancomycin resistant Enterococcus faecalis ATCC 51299 assessed as reduction in bacterial cell growth incubated for 18 to 20 hrs followed by re-plating on tryptic soy agar plates at 37 degC for 18 hrs by broth microdilution assay; assay type: functional
[12] = tested on: Staphylococcus aureus; assay: Antibacterial activity against vancomycin resistant Staphylococcus aureus VRS10 assessed as reduction in bacterial cell growth incubated for 18 to 20 hrs by broth microdilution method; assay type: functional
[13] = tested on: Staphylococcus aureus; assay: Bactericidal activity against Staphylococcus aureus ATCC 6538 assessed as reduction in bacterial cell growth incubated for 18 to 20 hrs followed by re-plating on tryptic soy agar plates at 37 degC for 18 hrs by broth microdilution assay; assay type: functional
[14] = tested on: Staphylococcus aureus; assay: Bactericidal activity against vancomycin resistant Staphylococcus aureus VRS10 assessed as reduction in bacterial cell growth incubated for 18 to 20 hrs followed by re-plating on tryptic soy agar plates at 37 degC for 18 hrs by broth microdilution assay; assay type: functional
[15] = tested on: Staphylococcus aureus; assay: Antibacterial activity against vancomycin resistant Staphylococcus aureus VRS11a assessed as reduction in bacterial cell growth incubated for 18 to 20 hrs by broth microdilution method; assay type: functional
[16] = tested on: Staphylococcus aureus; assay: Antibacterial activity against methicillin resistant Staphylococcus aureus NRS119 assessed as reduction in bacterial cell growth incubated for 18 to 20 hrs by broth microdilution method; assay type: functional
[17] = tested on: Staphylococcus aureus; assay: Antibacterial activity against Staphylococcus aureus NRS107 assessed as reduction in bacterial cell growth incubated for 18 to 20 hrs by broth microdilution method; assay type: functional
[18] = tested on: Staphylococcus epidermidis; assay: Bactericidal activity against methicillin resistant Staphylococcus epidermidis NRS101 assessed as reduction in bacterial cell growth incubated for 18 to 20 hrs followed by re-plating on tryptic soy agar plates at 37 degC for 18 hrs by broth microdilution assay; assay type: functional
[19] = tested on: Staphylococcus aureus; assay: Bactericidal activity against Staphylococcus aureus NRS107 assessed as reduction in bacterial cell growth incubated for 18 to 20 hrs followed by re-plating on tryptic soy agar plates at 37 degC for 18 hrs by broth microdilution assay; assay type: functional
[20] = tested on: Staphylococcus aureus; assay: Bactericidal activity against vancomycin resistant Staphylococcus aureus VRS12 assessed as reduction in bacterial cell growth incubated for 18 to 20 hrs followed by re-plating on tryptic soy agar plates at 37 degC for 18 hrs by broth microdilution assay; assay type: functional
[21] = tested on: Staphylococcus aureus; assay: Bactericidal activity against methicillin resistant Staphylococcus aureus NRS119 assessed as reduction in bacterial cell growth incubated for 18 to 20 hrs followed by re-plating on tryptic soy agar plates at 37 degC for 18 hrs by broth microdilution assay; assay type: functional
[22] = tested on: Staphylococcus epidermidis; assay: Antibacterial activity against methicillin resistant Staphylococcus epidermidis NRS101 assessed as reduction in bacterial cell growth incubated for 18 to 20 hrs by broth microdilution method; assay type: functional
[23] = tested on: Staphylococcus aureus; assay: Bactericidal activity against methicillin-resistant Staphylococcus aureus USA300 assessed as reduction in bacterial cell growth incubated for 18 to 20 hrs followed by re-plating on tryptic soy agar plates at 37 degC for 18 hrs by broth microdilution assay; assay type: functional
[24] = tested on: Enterococcus faecium; assay: Antibacterial activity against vancomycin resistant Enterococcus faecium ATCC 700221 assessed as reduction in bacterial cell growth incubated for 18 to 20 hrs by broth microdilution method; assay type: functional
[25] = tested on: Listeria monocytogenes; assay: Antibacterial activity against Listeria monocytogenes ATCC 19111 assessed as reduction in bacterial cell growth incubated for 18 to 20 hrs by broth microdilution method; assay type: functional

With `C/C(=N\NC(=N)N)c1sc(-c2ccc(C#Cc3cccc(N)c3)cc2)nc1C` as the molecule, how does the MIC [1] read?
The MIC was 4 µg/mL (≈ 10.3 µM).

With `C/C(=N\NC(=N)N)c1sc(-c2ccc(C#Cc3ccccc3[N+](=O)[O-])cc2)nc1C` as the molecule, how does the MIC [1] read?
Its MIC is over 64 µg/mL.

What does the source list for `C/C(=N\NC(=N)N)c1sc(-c2ccc(C#Cc3ccccc3)cc2)nc1C`?
solubility kinetic at 2 h [2]: 2.5 µM (≈ 0.934 µg/mL); Activity [3]: Toxic

With `C/C(=N\NC(=N)N)c1sc(-c2ccc(C#Cc3cncnc3)cc2)nc1C` as the molecule, how does the MIC [1] read?
Its MIC is over 64 µg/mL.

With `CCCCc1ccc(-c2nc(C)c(/C(C)=N/NC(=N)N)s2)cc1` as the molecule, how does the solubility kinetic at 2 h [2] read?
The solubility kinetic at 2 h was 65 µM (≈ 21.4 µg/mL).

With `C/C(=N\NC(=N)N)c1sc(-c2ccc(C#Cc3ccccn3)cc2)nc1C` as the molecule, how does the MIC [1] read?
The MIC was 32 µg/mL (≈ 85.5 µM).

Which MIC [1] does the source give for `COC(=O)c1ccccc1C#Cc1ccc(-c2nc(C)c(/C(C)=N/NC(=N)N)s2)cc1` here?
The MIC was 16 µg/mL (≈ 37.1 µM).

With `C/C(=N\NC(=N)N)c1sc(-c2ccc(C#Cc3ncccn3)cc2)nc1C` as the molecule, how does the MIC [1] read?
The MIC was over 64 µg/mL.

Which MIC [1] does the source give for `COC(=O)c1cccc(C#Cc2ccc(-c3nc(C)c(/C(C)=N/NC(=N)N)s3)cc2)c1` here?
Its MIC is 32 µg/mL (≈ 74.2 µM).

With `CCOC(=O)C#Cc1ccc(-c2nc(C)c(/C(C)=N/NC(=N)N)s2)cc1` as the molecule, how does the MIC [1] read?
The MIC was over 64 µg/mL.

Which MIC [1] does the source give for `COc1ccccc1C#Cc1ccc(-c2nc(C)c(/C(C)=N/NC(=N)N)s2)cc1` here?
The MIC was 16 µg/mL (≈ 39.7 µM).

Which MIC [1] does the source give for `C/C(=N/NC(=N)N)c1ccc(C#Cc2ccc(-c3nc(C)c(/C(C)=N/NC(=N)N)s3)cc2)cc1` here?
The MIC was over 64 µg/mL.

For `C/C(=N\NC(=N)N)c1sc(-c2ccc(C#Cc3ccccc3O)cc2)nc1C`, which MIC [1] is on record?
The MIC was over 64 µg/mL.

Which solubility kinetic at 2 h [2] does the source give for `C/C(=N\NC(=N)N)c1sc(-c2ccc(C#CC3CCCCC3)cc2)nc1C` here?
Its solubility kinetic at 2 h is 2.7 µM (≈ 1.02 µg/mL).

What does the source list for `CC(=O)NC[C@H]1CN(c2ccc(N3CCOCC3)c(F)c2)C(=O)O1` [LINEZOLID]?
MBC [4]: 16 µg/mL (≈ 47.4 µM); MBC [5]: 16 µg/mL (≈ 47.4 µM); MBC [6]: 32 µg/mL (≈ 94.9 µM); MBC [7]: 32 µg/mL (≈ 94.9 µM); MIC [8]: 1 µg/mL (≈ 2.96 µM); MBC [9]: 8 µg/mL (≈ 23.7 µM); MIC [10]: 1 µg/mL (≈ 2.96 µM); MBC [11]: 32 µg/mL (≈ 94.9 µM); MIC [12]: 1 µg/mL (≈ 2.96 µM); MBC [13]: 16 µg/mL (≈ 47.4 µM); MBC [14]: 16 µg/mL (≈ 47.4 µM); MIC [15]: 1 µg/mL (≈ 2.96 µM); MIC [16]: 32 µg/mL (≈ 94.9 µM); MIC [17]: 1 µg/mL (≈ 2.96 µM); MBC [18]: 16 µg/mL (≈ 47.4 µM); MBC [19]: 16 µg/mL (≈ 47.4 µM); MBC [20]: 16 µg/mL (≈ 47.4 µM); MBC [21]: > 64 µg/mL; MIC [22]: ≤ 0.5 µg/mL; MBC [23]: 32 µg/mL (≈ 94.9 µM); MIC [1]: 1 µg/mL (≈ 2.96 µM); MIC [24]: ≤ 0.5 µg/mL; MIC [25]: ≤ 0.5 µg/mL
